Measurements published in ChEMBL document CHEMBL4368931, “Discovery of novel thienoquinoline-2-carboxamide chalcone derivatives as antiproliferative EGFR tyrosine kinase inhibitors” (Bioorg Med Chem, 2019).

Experiments:
A-375 = experiment: Antiproliferative activity against human A375 cells after 48 hrs by propidium iodide fluorescence assay; format: functional, cell-based; details: A-375, 48 h
PANC-1 = experiment: Antiproliferative activity against human PANC1 cells after 48 hrs by propidium iodide fluorescence assay; format: functional, cell-based; details: PANC-1, 48 h
[1] = Cytotoxicity in human MCF10A cells assessed as cell viability incubated for 4 days by MTT assay; format: cell-based, MCF-10A; parameters: concentration or dose not given beside the values; details: read-out: Activity
NCI-H460 [2] = experiment: Antiproliferative activity against human NCI-H460 cells after 48 hrs by propidium iodide fluorescence assay; format: functional, cell-based; details: NCI-H460, 48 h
MIA PaCa-2 = experiment: Antiproliferative activity against human MIAPaCa2 cells after 48 hrs by propidium iodide fluorescence assay; format: functional, cell-based; details: MIA PaCa-2, 48 h
HT-29 = experiment: Antiproliferative activity against human HT-29 cells after 48 hrs by propidium iodide fluorescence assay; format: functional, cell-based; details: HT-29, 48 h
[3] = target: Epidermal growth factor receptor (Homo sapiens, UniProt P00533); experiment: Inhibition of His6-tagged EGFR cytoplasmic domain (645 to 1186 residues) (unknown origin) expressed in baculovirus infected Sf9 insect cells after 10 mins by DELFIA/time-resolved fluorometry
NCI-H460 [4] = experiment: Cell cycle arrest in human NCI-H460 cells assessed as accumulation of cells at G1 phase at 0.2 uM after 24 hrs by propidium iodide staining-based flow cytometric analysis (reference value: 47.39%); format: functional
NCI-H460 [5] = experiment: Induction of apoptosis in human NCI-H460 cells assessed as late apoptotic cells at 0.2 uM after 24 hrs by Annexin V-FITC/propidium iodide staining-based flow cytometric analysis relative to control; format: functional
NCI-H460 [6] = experiment: Induction of apoptosis in human NCI-H460 cells assessed as necrotic cells at 0.2 uM after 24 hrs by Annexin V-FITC/propidium iodide staining-based flow cytometric analysis relative to control; format: functional
NCI-H460 [7] = experiment: Cell cycle arrest in human NCI-H460 cells assessed as apoptotic cells at 0.2 uM after 24 hrs by propidium iodide staining-based flow cytometric analysis (reference value: 1.55%); format: functional
NCI-H460 [8] = experiment: Induction of apoptosis in human NCI-H460 cells assessed as early apoptotic cells at 0.2 uM after 24 hrs by Annexin V-FITC/propidium iodide staining-based flow cytometric analysis relative to control; format: functional
NCI-H460 [9] = experiment: Cell cycle arrest in human NCI-H460 cells assessed as accumulation of cells at S phase at 0.2 uM after 24 hrs by propidium iodide staining-based flow cytometric analysis (reference value: 42.61%); format: functional
NCI-H460 [10] = experiment: Cell cycle arrest in human NCI-H460 cells assessed as accumulation of cells at G2 phase at 0.2 uM after 24 hrs by propidium iodide staining-based flow cytometric analysis (reference value: 10%); format: functional
[11] = target: Serine/threonine-protein kinase Chk2 (Homo sapiens, UniProt O96017); experiment: Inhibition of CHK2 (unknown origin)
[12] = target: Vascular endothelial growth factor receptor 1 (Homo sapiens, UniProt P17948); experiment: Inhibition of VEGFR1 (unknown origin)
Chain of Vascular endothelial growth factor receptor 1 (P17948 whole entry): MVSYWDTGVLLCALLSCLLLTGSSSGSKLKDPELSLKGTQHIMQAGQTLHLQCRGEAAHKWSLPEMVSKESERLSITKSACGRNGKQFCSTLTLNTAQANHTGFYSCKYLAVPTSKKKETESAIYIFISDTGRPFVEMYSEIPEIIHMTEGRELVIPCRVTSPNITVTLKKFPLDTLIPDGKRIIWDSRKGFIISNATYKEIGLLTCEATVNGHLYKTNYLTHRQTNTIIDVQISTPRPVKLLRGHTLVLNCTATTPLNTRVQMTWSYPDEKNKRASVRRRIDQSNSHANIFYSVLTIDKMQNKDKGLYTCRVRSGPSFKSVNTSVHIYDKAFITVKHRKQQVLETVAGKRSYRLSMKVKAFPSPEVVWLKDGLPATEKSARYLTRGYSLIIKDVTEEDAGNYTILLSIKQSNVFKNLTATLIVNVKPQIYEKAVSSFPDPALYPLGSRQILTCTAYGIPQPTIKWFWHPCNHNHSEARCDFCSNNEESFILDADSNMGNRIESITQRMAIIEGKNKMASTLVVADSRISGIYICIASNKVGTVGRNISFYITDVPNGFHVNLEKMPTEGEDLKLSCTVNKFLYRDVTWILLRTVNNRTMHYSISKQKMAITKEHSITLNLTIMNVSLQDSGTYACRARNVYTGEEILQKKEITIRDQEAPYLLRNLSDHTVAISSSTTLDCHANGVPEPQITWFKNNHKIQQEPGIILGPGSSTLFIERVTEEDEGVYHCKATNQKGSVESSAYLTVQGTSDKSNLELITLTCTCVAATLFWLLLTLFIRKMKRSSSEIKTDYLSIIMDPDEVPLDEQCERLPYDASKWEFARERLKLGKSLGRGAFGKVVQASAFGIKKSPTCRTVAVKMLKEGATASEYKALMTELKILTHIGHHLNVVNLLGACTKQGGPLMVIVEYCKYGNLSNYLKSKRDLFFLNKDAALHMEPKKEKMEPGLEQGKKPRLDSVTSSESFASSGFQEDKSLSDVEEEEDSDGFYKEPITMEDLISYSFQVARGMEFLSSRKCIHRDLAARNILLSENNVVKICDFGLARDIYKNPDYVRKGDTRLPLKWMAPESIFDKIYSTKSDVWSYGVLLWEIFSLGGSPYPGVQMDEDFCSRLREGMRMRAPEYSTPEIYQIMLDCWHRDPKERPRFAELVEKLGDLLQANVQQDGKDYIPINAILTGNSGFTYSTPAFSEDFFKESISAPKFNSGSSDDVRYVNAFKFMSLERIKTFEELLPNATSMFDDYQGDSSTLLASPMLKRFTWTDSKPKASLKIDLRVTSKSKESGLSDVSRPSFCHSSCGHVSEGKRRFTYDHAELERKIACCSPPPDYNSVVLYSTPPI

Chain of Epidermal growth factor receptor (P00533 whole entry, the tested form may be a part): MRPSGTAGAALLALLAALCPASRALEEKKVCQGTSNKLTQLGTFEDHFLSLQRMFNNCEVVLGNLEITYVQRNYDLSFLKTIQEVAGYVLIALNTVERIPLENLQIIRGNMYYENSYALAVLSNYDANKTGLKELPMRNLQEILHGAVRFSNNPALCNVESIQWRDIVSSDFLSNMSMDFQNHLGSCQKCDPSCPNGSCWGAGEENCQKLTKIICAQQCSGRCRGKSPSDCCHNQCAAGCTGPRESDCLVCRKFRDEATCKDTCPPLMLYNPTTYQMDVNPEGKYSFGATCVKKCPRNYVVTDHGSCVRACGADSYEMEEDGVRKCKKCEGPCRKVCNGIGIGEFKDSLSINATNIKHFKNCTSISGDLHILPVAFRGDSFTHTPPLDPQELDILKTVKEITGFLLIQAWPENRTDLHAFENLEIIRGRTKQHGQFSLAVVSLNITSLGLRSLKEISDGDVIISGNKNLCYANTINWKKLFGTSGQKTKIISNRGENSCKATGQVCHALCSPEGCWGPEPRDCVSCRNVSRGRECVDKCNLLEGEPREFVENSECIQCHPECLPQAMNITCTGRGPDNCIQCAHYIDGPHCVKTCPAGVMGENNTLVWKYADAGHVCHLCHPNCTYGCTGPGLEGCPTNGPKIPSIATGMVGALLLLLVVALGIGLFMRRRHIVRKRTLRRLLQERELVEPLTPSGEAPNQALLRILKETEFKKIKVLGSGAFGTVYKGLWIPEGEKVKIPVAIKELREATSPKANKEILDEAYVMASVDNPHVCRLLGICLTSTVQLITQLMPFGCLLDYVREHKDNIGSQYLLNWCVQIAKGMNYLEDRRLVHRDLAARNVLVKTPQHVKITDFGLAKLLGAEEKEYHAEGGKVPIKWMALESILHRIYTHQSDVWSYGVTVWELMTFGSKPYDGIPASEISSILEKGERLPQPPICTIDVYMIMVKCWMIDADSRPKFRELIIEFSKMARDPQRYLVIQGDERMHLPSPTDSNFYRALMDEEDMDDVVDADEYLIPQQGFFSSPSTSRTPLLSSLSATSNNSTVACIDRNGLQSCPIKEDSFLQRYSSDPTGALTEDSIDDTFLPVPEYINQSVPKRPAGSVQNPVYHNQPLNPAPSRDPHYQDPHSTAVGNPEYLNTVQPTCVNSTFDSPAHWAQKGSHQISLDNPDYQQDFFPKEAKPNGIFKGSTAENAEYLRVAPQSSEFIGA
Chain of Serine/threonine-protein kinase Chk2 (O96017 whole entry): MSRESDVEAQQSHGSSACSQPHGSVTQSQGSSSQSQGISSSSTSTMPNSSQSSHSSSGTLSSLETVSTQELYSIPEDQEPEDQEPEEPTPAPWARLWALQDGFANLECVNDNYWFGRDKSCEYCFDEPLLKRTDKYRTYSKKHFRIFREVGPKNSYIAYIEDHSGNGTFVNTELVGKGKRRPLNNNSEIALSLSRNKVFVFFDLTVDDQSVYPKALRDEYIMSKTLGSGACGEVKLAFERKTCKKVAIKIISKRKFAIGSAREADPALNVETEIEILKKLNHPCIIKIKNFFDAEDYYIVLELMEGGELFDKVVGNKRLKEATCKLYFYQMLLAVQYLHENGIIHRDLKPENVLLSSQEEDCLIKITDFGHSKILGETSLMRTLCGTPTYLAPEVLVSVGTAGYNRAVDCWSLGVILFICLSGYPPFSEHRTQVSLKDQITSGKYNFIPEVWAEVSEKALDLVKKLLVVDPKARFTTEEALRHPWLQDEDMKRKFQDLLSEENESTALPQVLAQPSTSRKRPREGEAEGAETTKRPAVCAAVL

Row | IC50 (A-375) | IC50 (PANC-1) | IC50 (NCI-H460 [2]) | IC50 (MIA PaCa-2) | IC50 (HT-29) | IC50 [3] | IC50 [11] | IC50 [12] | SMILES | viability at 96 h [1] | Activity (NCI-H460 [4]) | Activity (NCI-H460 [5]) | Activity (NCI-H460 [6]) | Activity (NCI-H460 [7]) | Activity (NCI-H460 [8]) | Activity (NCI-H460 [9]) | Activity (NCI-H460 [10])
1 | 19.4 µM | 5.9 µM | 6.7 µM | 6.2 µM | 7.9 µM | – | – | – | O=C(/C=C/c1ccc(Cl)cc1)c1ccc(NC(=O)c2cc3cc4ccccc4nc3s2)cc1 | > 91% | – | – | – | – | – | – | –
2 | 2 µM | 1.2 µM | 0.9 µM | 0.9 µM | 1 µM | 0.5 µM | – | – | COc1ccc(/C=C/C(=O)c2ccc(NC(=O)c3cc4cc5cc(C)ccc5nc4s3)cc2)cc1OC | > 91% | 44.24% | 9.08% | 2.31% | 15.72% | 7.22% | 17.45% | 38.31%
3 | – | – | – | – | – | – | 1.7 µM | 0.54 µM | CCCCNc1ncnc2c1sc1nc3ccccc3cc12 | – | – | – | – | – | – | – | –
4 | 1.6 µM | 1 µM | 0.2 µM | 0.8 µM | 0.5 µM | 0.7 µM | – | – | COc1ccc2nc3sc(C(=O)Nc4ccc(C(=O)/C=C/c5ccc(OC)c(OC)c5)cc4)cc3cc2c1 | > 91% | – | – | – | – | – | – | –
5 | 28.4 µM | 6.7 µM | 9.7 µM | 6.2 µM | 9.4 µM | – | – | – | COc1cccc(/C=C/C(=O)c2ccc(NC(=O)c3cc4cc5ccccc5nc4s3)cc2)c1 | > 91% | – | – | – | – | – | – | –
6 | 2.4 µM | – | 1.2 µM | 0.5 µM | 1.1 µM | 1.6 µM | – | – | COc1ccc(/C=C/C(=O)c2ccc(NC(=O)c3cc4cc5ccccc5nc4s3)cc2)cc1OC | > 91% | – | – | – | – | – | – | –
7 | > 50 µM | 4.5 µM | 5.5 µM | 4.9 µM | 6.7 µM | 2.8 µM | – | – | COc1cccc(/C=C/C(=O)c2ccc(NC(=O)c3cc4cc5cc(OC)ccc5nc4s3)cc2)c1 | > 91% | – | – | – | – | – | – | –
8 | 39.6 µM | 9.6 µM | 9.2 µM | 9.4 µM | 11.6 µM | – | – | – | Cc1ccc2nc3sc(C(=O)Nc4ccc(C(=O)/C=C/c5ccc(Cl)cc5)cc4)cc3cc2c1 | > 91% | – | – | – | – | – | – | –
9 | 16.7 µM | 5.5 µM | 6.5 µM | 5.9 µM | 7.8 µM | – | – | – | COc1ccc2nc3sc(C(=O)Nc4ccc(C(=O)/C=C/c5ccccc5)cc4)cc3cc2c1 | > 91% | – | – | – | – | – | – | –
10 | 17.6 µM | 3.5 µM | 3.6 µM | 3.7 µM | 4.2 µM | 2.9 µM | – | – | COc1cccc(/C=C/C(=O)c2ccc(NC(=O)c3cc4cc5cc(C)ccc5nc4s3)cc2)c1 | > 91% | – | – | – | – | – | – | –
11 | > 50 µM | – | – | 12.5 µM | 14.9 µM | – | – | – | O=C(/C=C/c1ccccc1)c1ccc(NC(=O)c2cc3cc4ccccc4nc3s2)cc1 | > 91% | – | – | – | – | – | – | –
12 | 6.4 µM | 2.2 µM | 3.2 µM | 2 µM | 3.7 µM | 3.2 µM | – | – | COc1cc(/C=C/C(=O)c2ccc(NC(=O)c3cc4cc5cc(C)ccc5nc4s3)cc2)cc(OC)c1OC | > 91% | – | – | – | – | – | – | –
13 | 25.9 µM | 9.5 µM | 9.7 µM | 9.2 µM | 10.4 µM | – | – | – | Cc1ccc2nc3sc(C(=O)Nc4ccc(C(=O)/C=C/c5ccccc5)cc4)cc3cc2c1 | > 91% | – | – | – | – | – | – | –
14 | 44.6 µM | 13.8 µM | 12.2 µM | 14.4 µM | 17.2 µM | – | – | – | COc1ccc2nc3sc(C(=O)Nc4ccc(C(=O)/C=C/c5ccc(Cl)cc5)cc4)cc3cc2c1 | > 91% | – | – | – | – | – | – | –
15 | 4.2 µM | 1.4 µM | 2.7 µM | 1.7 µM | 2.5 µM | 1.2 µM | – | – | COc1cc(/C=C/C(=O)c2ccc(NC(=O)c3cc4cc5ccccc5nc4s3)cc2)cc(OC)c1OC | > 91% | – | – | – | – | – | – | –
16 | 3.8 µM | 1.4 µM | 1.9 µM | 1 µM | 1.4 µM | 1.4 µM | – | – | COc1ccc2nc3sc(C(=O)Nc4ccc(C(=O)/C=C/c5cc(OC)c(OC)c(OC)c5)cc4)cc3cc2c1 | > 91% | – | – | – | – | – | – | –
